Converted amounts (≈) assume the structure as drawn.

What is called solubility (kinetic) is the concentration staying in solution when a stock, usually in DMSO, is diluted into the medium.

For the series the following is noted: buffer; pH 7.4; 200.0 µM.
In turn, `Cc1ccccc1NC(=S)NC(=O)Cc1ccc(Cl)cc1` registered a kinetic solubility of 0.5 µg/mL (≈ 1.57 µM).

`CC1CCCCC1NC(=O)c1ccc2c(c1)OCCO2` (configuration not stated) had a kinetic solubility of more than 41.3 µg/mL.

`CCN(CC)CCCNc1nc(N)c([N+](=O)[O-])c(NCCO)n1` yielded a solubility (kinetic) of more than 49.1 µg/mL.

In turn, `Cc1ccc(CC(=O)Nc2ccc(F)c([N+](=O)[O-])c2)cc1C` displayed a kinetic solubility of 4.1 µg/mL (≈ 13.6 µM).

On to `COc1ccc(CCC(=O)Nc2ncc(C)s2)cc1OC`, for which the kinetic solubility was 1.8 µg/mL (≈ 5.87 µM).

For `CC(=O)N1CCN(C(=O)c2ccc3c(c2)OCCO3)CC1`, the solubility (kinetic) was more than 43.5 µg/mL.

`CC1CCN(C(=O)Cn2cc([N+](=O)[O-])ccc2=O)c2ccccc2S1` (configuration not stated) showed a kinetic solubility of more than 53.9 µg/mL.

`CC(C)Cn1c(SCC(=O)Nc2ccc(Cl)cc2F)nc(O)cc1=O` yielded a solubility (kinetic) of more than 57.9 µg/mL.

As for `O=C(NC1CC1)c1cc(OCC(F)(F)F)ccc1OCC(F)(F)F`, the kinetic solubility is 44.3 µg/mL (≈ 124 µM).

The molecule `Cc1cc(NC(=O)c2cccs2)no1` had a kinetic solubility of more than 31.2 µg/mL.

Take `CCc1cccc(C)c1NC(=O)N(C)C1CCCCC1`: the solubility (kinetic) is 35.6 µg/mL (≈ 130 µM).

In turn, `CC1CC(C)CN(CC(O)COCc2ccccc2)C1.Cl` (configuration not stated) had a solubility (kinetic) of 46.9 µg/mL.

In the case of `O=C(NC(=S)NC1CCS(=O)(=O)C1)c1ccccc1F` (configuration not stated), the solubility (kinetic) worked out at 44.9 µg/mL (≈ 142 µM).

`CN(C)CCCNC(=O)c1cc(C(=O)Cc2ccccc2)c[nH]1` came in with a solubility (kinetic) of more than 47 µg/mL.

Turning to `CC(=O)c1cccc(S(=O)(=O)NCCC(=O)O)c1`, the solubility (kinetic) was 25.4 µg/mL (≈ 93.6 µM).

`COC(=O)CSc1nnc(CNC(=O)c2ccc(OC)c(OC)c2)n1C` had a solubility (kinetic) of more than 57.1 µg/mL.

Regarding `CCOc1ccc(OCc2ccc(C(=O)NC(C)(C)C)o2)cc1`, the kinetic solubility amounted to 8.8 µg/mL (≈ 27.7 µM).

Consider `Cc1ccc(-c2nc3cc(N)ccc3o2)cc1Br`, for which the solubility (kinetic) was determined as 0.3 µg/mL (≈ 0.99 µM).

In turn, `Cc1cc(C)cc(NC(=S)NCc2ccncc2)c1` displayed a kinetic solubility of 20.6 µg/mL (≈ 75.9 µM). This solubility kinetic is about 69-fold higher than that of the molecule before.

As for `CNc1ccc(/C=C2\CSc3ccccc3C2=O)cc1[N+](=O)[O-]`, the solubility (kinetic) amounted to 3 µg/mL (≈ 9.19 µM).

`COc1ccc(NS(=O)(=O)c2cn(C)cn2)cc1` returned a solubility (kinetic) of more than 40.1 µg/mL.

The molecule `Cc1[nH]c(=O)c(C#N)c(C)c1[N+](=O)[O-]` showed a kinetic solubility of 27.3 µg/mL (≈ 141 µM).

The molecule `OC(CNCc1ccccc1Cl)C(F)(F)F` (configuration not stated) displayed a solubility (kinetic) of 34.1 µg/mL (≈ 134 µM).

Regarding `CC(NC(=O)CCNC(=O)c1ccco1)c1ccc(F)cc1` (configuration not stated), the solubility (kinetic) was more than 45.6 µg/mL.

In turn, `CN(C)CCn1cnc2ccccc21.Cl` returned a solubility (kinetic) of more than 39.3 µg/mL.

In the case of `COc1ccc(OC)c(C(=O)COC(=O)c2ccc([N+](=O)[O-])o2)c1`, the solubility (kinetic) is more than 50.3 µg/mL.

As to `Nc1ncnc(SCc2c(F)cccc2Cl)n1`, the solubility (kinetic) came to 2.8 µg/mL (≈ 10.3 µM).

For the molecule `O=C(O)c1ccc(NC(=O)C(c2ccccc2)c2ccccc2)cc1`, the solubility (kinetic) was more than 49.7 µg/mL.

`O=C(NCCN1CCOCC1)c1cc(Cl)ccc1Cl` had a solubility (kinetic) of 41 µg/mL (≈ 135 µM).

Turning to `COc1cccc(NC(=O)NCc2ccccc2Cl)c1`, the kinetic solubility stood at 1 µg/mL (≈ 3.44 µM).

Molecule `Cc1ccccc1S(=O)(=O)NC(=NCc1ccc(F)cc1)c1ccccc1` had a kinetic solubility of 34.1 µg/mL (≈ 89.2 µM).

The molecule `Cc1cc(C)nc(NC(=O)c2ccc([N+](=O)[O-])c(C)c2)n1` displayed a kinetic solubility of 13.3 µg/mL (≈ 46.5 µM).

Regarding `O=C(NC(=S)N1CCCC1)c1ccccc1`, the solubility (kinetic) was more than 35.1 µg/mL.

Molecule `CCC(CC)NC(=O)c1cccc(Oc2ccccc2)c1` registered a solubility (kinetic) of 5.2 µg/mL (≈ 18.4 µM).

`CCOc1cccc(Nc2ccc([N+](=O)[O-])cn2)c1` returned a solubility (kinetic) of 2.4 µg/mL (≈ 9.26 µM).

As to `Cc1ccc(C)c(Cn2cnc3c(oc4ccccc43)c2=O)c1`, the solubility (kinetic) is less than 0.3 µg/mL.

Molecule `O=C(NCCc1c[nH]c2ccccc12)C(=O)NCC1CCCO1` (configuration not stated) gave a solubility (kinetic) of 9 µg/mL (≈ 28.5 µM).

As for `CCOC(=O)N1c2ccccc2C=CC1OCC` (configuration not stated), the solubility (kinetic) worked out at 8 µg/mL (≈ 32.4 µM).

Molecule `O=S(=O)(c1ccc2ccccc2c1)N1CCc2ccccc21` registered a kinetic solubility of less than 0.7 µg/mL.

Molecule `O=C(COC(=O)c1ccc(Cl)cc1[N+](=O)[O-])NCc1ccco1` gave a solubility (kinetic) of more than 50.8 µg/mL.

`CC(=O)c1c[nH]c(C(=O)NCc2cccc(C(F)(F)F)c2)c1` returned a solubility (kinetic) of 2.2 µg/mL (≈ 7.09 µM).

Molecule `N#CCCN(Cc1ccncc1)C(=S)NC1CC2C=CC1C2` (configuration not stated) gave a kinetic solubility of 46.3 µg/mL (≈ 148 µM).

`CCOC(=O)c1cc2c(ccn2C)n1CC(=O)N1C(C)CCCC1C` (configuration not stated) displayed a solubility (kinetic) of more than 51.8 µg/mL.

Molecule `O=C(NCCCNC(=O)c1ccccc1)c1ccccc1` returned a solubility (kinetic) of more than 42.4 µg/mL.

The molecule `O=C(NCCc1c[nH]c2ccccc12)c1ccccc1Cl` showed a kinetic solubility of 23.2 µg/mL (≈ 77.7 µM).

As for `CC1CCCN(C(=O)C2CCN(S(=O)(=O)c3ccccc3)CC2)C1` (configuration not stated), the kinetic solubility was more than 52.6 µg/mL.

`CN(Cc1c(F)cccc1Cl)C(=O)c1ccc2ccccc2n1`: the kinetic solubility is more than 49.3 µg/mL.

`CC(=O)Nc1ccc(NC(=O)C(C)OC(=O)C2CCC2)cc1` (configuration not stated) displayed a solubility (kinetic) of more than 45.7 µg/mL.

`O=Cc1cn(CCOc2ccccc2F)c2ccccc12` registered a kinetic solubility of 12.8 µg/mL (≈ 45.2 µM).

Molecule `O=S(=O)(NC1CC1)c1ccc(Cl)cc1` yielded a solubility (kinetic) of more than 34.8 µg/mL.

As for `Cc1ccc(CNC(=O)COC(=O)c2cc(C)oc2C)cc1`, the kinetic solubility is 4.4 µg/mL (≈ 14.6 µM).

For the molecule `CN(CC(=O)Nc1cccc(F)c1)C(=O)c1sc2ccccc2c1Cl`, the solubility (kinetic) worked out at 23 µg/mL (≈ 61 µM).

Source of the values: PubChem BioAssay AID1996.
